molecular target: PARG (389-976) (Homo sapiens (Human), UniProt Q86W56); assay: PARG enzyme inhibition assay (TR-FRET); assay type: biochemical; settings: Table 1, class symbol
Protocol: PARG Enzyme Inhibition Assay
PARG in vitro assays were conducted in standard 384-well plates in a total volume of 15 μL.

Chain of PARG (389-976) (Q86W56 389-976): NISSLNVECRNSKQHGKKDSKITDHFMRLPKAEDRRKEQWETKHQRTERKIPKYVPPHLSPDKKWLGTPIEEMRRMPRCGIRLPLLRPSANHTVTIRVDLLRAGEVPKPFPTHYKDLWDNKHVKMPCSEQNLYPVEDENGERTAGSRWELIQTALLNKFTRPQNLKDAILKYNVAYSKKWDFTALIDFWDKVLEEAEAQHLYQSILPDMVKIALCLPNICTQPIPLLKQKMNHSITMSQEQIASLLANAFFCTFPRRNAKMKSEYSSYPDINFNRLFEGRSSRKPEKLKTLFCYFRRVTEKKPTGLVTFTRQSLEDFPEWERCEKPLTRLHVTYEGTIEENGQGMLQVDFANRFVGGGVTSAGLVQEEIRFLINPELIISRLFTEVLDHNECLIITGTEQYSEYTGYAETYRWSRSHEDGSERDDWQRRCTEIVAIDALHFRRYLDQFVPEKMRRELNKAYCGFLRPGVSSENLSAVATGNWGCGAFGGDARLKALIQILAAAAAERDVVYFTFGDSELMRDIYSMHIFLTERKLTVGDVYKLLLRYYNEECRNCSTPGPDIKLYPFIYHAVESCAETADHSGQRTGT

Row | Compound | IC50 [nM]
1 | Cc1nc(C)c(Cn2nc(-c3nnc(C(F)F)s3)c3cc(S(=O)(=O)NC4(C)CC4)ccc32)s1 [Compound 1] | < 100
2 | Cc1nnc(-c2nn(Cc3sc(C)nc3C)c3ccc(S(=O)(=O)NC4(C)CC4)cc23)s1 [Compound 2] | < 100
3 | Cc1nc(C)c(Cn2nc(-c3nnc(C(F)F)s3)c3cc(S(=O)(=O)NC4(CF)CC4)ccc32)s1 [Compound 4] | < 100
4 | Cc1nc(C)c(Cn2c(Cl)c(-c3nnc(C(F)F)s3)c3cc(S(=O)(=O)NC4(C)CC4)ccc32)s1 [Compound 7] | < 100
5 | Cc1nc(C)c(Cn2cc(-c3nnc(C(F)F)s3)c3cc(S(=O)(=O)NC4(C)CC4)ccc32)s1 [Compound 8] | < 100
6 | Cc1nc(C)c(Cn2nc(-c3nnc(C(F)F)s3)c3cc(S(=O)(=O)NC4(C)CC4)cnc32)s1 [Compound 9] | < 100
7 | Cc1nc(C)c(Cn2nc(-c3nnc(C(F)F)s3)c3cc(S(=O)(=O)NC4(C)CC4)cc(C(F)(F)F)c32)s1 [Compound 10] | 100 to 1000
8 | Cc1nc(C)c(Cn2nc(-c3nnc(C(F)F)s3)c3nc(S(=O)(=O)NC4(C)CC4)ccc32)s1 [Compound 11] | 100 to 1000
9 | O=S(=O)(NC1(CF)CC1)c1ccc2c(c1)c(-c1nnc(C(F)F)s1)nn2CC1CC1 [Compound 12] | < 100

same assay, conditions: Table 2, class symbol

Row | Compound | IC50 [nM]
10 | Cc1nc(C)c(Cn2nc(-c3nnc(C(F)F)s3)c3cc(S(=O)(=O)NC4(C)CC4)c(F)cc32)s1 [Compound 13] | < 100
11 | Cc1nc(C)c(Cn2nc(-c3nnc(C(F)F)s3)c3cc(S(=O)(=O)NC4(C)CC4)cc(F)c32)s1 [Compound 14] | < 100
12 | CC(C)C(=O)N1CCN(c2cc(S(=O)(=O)NC3(C)CC3)cc3c(-c4nnc(C(F)F)s4)nn(CC4CC4)c23)CC1 [Compound 15] | < 100
13 | CC(C)C(=O)N1CCN(c2cc(S(=O)(=O)NC3(C)CC3)cc3c(-c4nnc(C(F)F)s4)nn(C(C)C)c23)CC1 [Compound 16] | < 100
14 | CC(C)C(=O)N1CCN(c2cc(S(=O)(=O)NC3(C#N)CC3)cc3c(-c4nnc(C(F)F)s4)n[nH]c23)CC1 [Compound 18] | < 100
15 | Cc1nc(C)c(Cn2nc(-c3nnc(C(F)F)s3)c3cc(S(=O)(=O)NC4(C)CC4)cc(N4CCN(C(=O)C(C)C)CC4)c32)s1 [Compound 19] | < 100
16 | Cn1nc(-c2nnc(C(F)F)s2)c2cc(S(=O)(=O)NC3(C)CC3)cc(N3CCn4cncc4C3)c21 [Compound 20] | < 100
17 | CC(C)C(=O)N1CCN(c2cc(S(=O)(=O)NC3(C)CC3)cc3c(-c4nnc(C(F)F)s4)nn(C4CC4)c23)CC1 [Compound 21] | < 100
18 | CCn1nc(-c2nnc(C(F)F)s2)c2cc(S(=O)(=O)NC3(C)CC3)cc(N3CCN(C(=O)C(C)C)CC3)c21 [Compound 22] | < 100
19 | CC(C)C(=O)N1CCN(c2cc(S(=O)(=O)NC3(C)CC3)cc3c(-c4nnc(C(F)F)s4)nn(CC(F)(F)F)c23)CC1 [Compound 23] | < 100
20 | Cn1nc(-c2nnc(C(F)F)s2)c2cc(S(=O)(=O)NC3(C#N)CC3)cc(N3CCN(C(=O)C4CC4)CC3)c21 [Compound 24] | < 100
21 | Cn1nc(-c2nnc(C(F)F)s2)c2cc(S(=O)(=O)NC3(C)CC3)cc(N3CCOCC3)c21 [Compound 25] | < 100
22 | CCn1nc(-c2nnc(C(F)F)s2)c2cc(S(=O)(=O)NC3(C#N)CC3)cc(N3CCN(C(=O)C(C)C)CC3)c21 [Compound 26] | < 100
23 | Cn1nc(-c2nnc(C(F)F)s2)c2cc(S(=O)(=O)NC3(C)CC3)cc(N3CCN(C(=O)C4CC4)CC3)c21 [Compound 27] | < 100
24 | Cn1nc(-c2nnc(C(F)F)s2)c2cc(S(=O)(=O)NC3(C#N)CC3)cc(-c3ccccc3)c21 [Compound 28] | < 100
25 | Cn1nc(-c2nnc(C(F)F)s2)c2cc(S(=O)(=O)NC3(C#N)CC3)cc(N3CCOCC3)c21 [Compound 29] | < 100
26 | CC(C)C(=O)N1CCN(c2cc(S(=O)(=O)NC3(C#N)CC3)cc3c(-c4nnc(C(F)F)s4)nn(CC(F)(F)F)c23)CC1 [Compound 30] | < 100
27 | Cn1nc(-c2nnc(C(F)F)s2)c2cc(S(=O)(=O)NC3(C#N)CC3)cc(-c3ccncn3)c21 [Compound 31] | < 100
28 | CC(=O)N1CCN(c2cc(S(=O)(=O)NC3(C#N)CC3)cc3c(-c4nnc(C(F)F)s4)nn(C)c23)CC1 [Compound 32] | < 100
29 | CN(C)C(=O)N1CCN(c2cc(S(=O)(=O)NC3(C#N)CC3)cc3c(-c4nnc(C(F)F)s4)nn(C)c23)CC1 [Compound 33] | < 100
30 | Cn1nc(-c2nnc(C(F)F)s2)c2cc(S(=O)(=O)NC3(C#N)CC3)cc(N3CCN(S(C)(=O)=O)CC3)c21 [Compound 34] | < 100
31 | C[C@H]1CN(c2cc(S(=O)(=O)NC3(C#N)CC3)cc3c(-c4nnc(C(F)F)s4)nn(C)c23)CCO1 [Compound 35] | < 100
32 | Cn1nc(-c2nnc(C(F)F)s2)c2cc(S(=O)(=O)NC3(C#N)CC3)cc(N3CCN(C(=O)c4ccccc4)CC3)c21 [Compound 36] | < 100
33 | C[C@@H]1CN(c2cc(S(=O)(=O)NC3(C#N)CC3)cc3c(-c4nnc(C(F)F)s4)nn(C)c23)CCO1 [Compound 37] | < 100
34 | Cn1nc(-c2nnc(C(F)F)s2)c2cc(S(=O)(=O)NC3(C#N)CC3)cc(N3CCN(C(=O)C4(C)CC4)CC3)c21 [Compound 38] | < 100
35 | CC(C)C(=O)N1CC=C(c2cc(S(=O)(=O)NC3(C#N)CC3)cc3c(-c4nnc(C(F)F)s4)nn(C)c23)CC1 [Compound 40] | < 100

Row | Compound | IC50 [nM]
36 | Cn1nc(-c2nnc(C(F)F)s2)c2cc(S(=O)(=O)NC3(C#N)CC3)cc(N3CCN(c4cccnn4)CC3)c21 [Compound 41] | < 100
37 | Cn1nc(-c2nnc(C(F)F)s2)c2cc(S(=O)(=O)NC3(C#N)CC3)cc(N3CCC(O)CC3)c21 [Compound 42] | < 100
38 | Cn1nc(-c2nnc(C(F)F)s2)c2cc(S(=O)(=O)NC3(C#N)CC3)cc(N3CCN(C(=O)c4ccccn4)CC3)c21 [Compound 43] | < 100
39 | Cn1nc(-c2nnc(C(F)F)s2)c2cc(S(=O)(=O)NC3(C#N)CC3)cc(N3CCC(CO)CC3)c21 [Compound 44] | < 100
40 | CCC(=O)N1CCN(c2cc(S(=O)(=O)NC3(C#N)CC3)cc3c(-c4nnc(C(F)F)s4)nn(C)c23)CC1 [Compound 45] | < 100
41 | Cn1nc(-c2nnc(C(F)F)s2)c2cc(S(=O)(=O)NC3(C#N)CC3)cc(N3CCC4(CC3)COC4)c21 [Compound 46] | < 100
42 | Cn1nc(-c2nnc(C(F)F)s2)c2cc(S(=O)(=O)NC3(C#N)CC3)cc(N3CCN(C(=O)C(F)(F)F)CC3)c21 [Compound 47] | < 100
43 | CC(C)S(=O)(=O)N1CCN(c2cc(S(=O)(=O)NC3(C#N)CC3)cc3c(-c4nnc(C(F)F)s4)nn(C)c23)CC1 [Compound 48] | < 100
44 | CC(C)CN1CCN(c2cc(S(=O)(=O)NC3(C#N)CC3)cc3c(-c4nnc(C(F)F)s4)nn(C)c23)CC1 [Compound 49] | < 100
45 | CCC(C)C(=O)N1CCN(c2cc(S(=O)(=O)NC3(C#N)CC3)cc3c(-c4nnc(C(F)F)s4)nn(C)c23)CC1 (stereo not shown) [Compound 50] | < 100
46 | Cn1nc(-c2nnc(C(F)F)s2)c2cc(S(=O)(=O)NC3(C#N)CC3)cc(N3CCN(C(=O)N4CCCC4)CC3)c21 [Compound 51] | < 100
47 | Cn1nc(-c2nnc(C(F)F)s2)c2cc(S(=O)(=O)NC3(C#N)CC3)cc(N3CCN(C(=O)CC(F)(F)F)CC3)c21 [Compound 52] | < 100
48 | Cn1nc(-c2nnc(C(F)F)s2)c2cc(S(=O)(=O)NC3(C#N)CC3)cc(N3CCN(c4ccccc4)CC3)c21 [Compound 53] | < 100
49 | CC(C)N1CCN(c2cc(S(=O)(=O)NC3(C#N)CC3)cc3c(-c4nnc(C(F)F)s4)nn(C)c23)CC1 [Compound 54] | < 100
50 | CC(C)C(=O)N1CCN(c2cc(S(=O)(=O)NC3(C#N)CC3)cc3c(-c4nnc(C(F)F)s4)nn(C(F)F)c23)CC1 [Compound 55] | < 100
51 | Cc1nnc(-c2nn(C)c3c(N4CCN(C(=O)C(C)C)CC4)cc(S(=O)(=O)NC4(C#N)CC4)cc23)s1 [Compound 56] | < 100
52 | N#CC1(NS(=O)(=O)c2ccc3c(c2)c(-c2nnc(C(F)F)s2)nn3Cc2ccc(F)cc2)CC1 [Compound 57] | < 100
53 | CC1(NS(=O)(=O)c2ccc3c(c2)c(-c2nnc(C(F)F)s2)nn3Cc2ccc3cn[nH]c3c2)CC1 [Compound 58] | < 100
54 | CC1(NS(=O)(=O)c2ccc3c(c2)c(-c2nnc(C(F)F)s2)nn3Cc2ccc3cncn3c2)CC1 [Compound 59] | < 100
55 | Cn1nc(-c2nnc(C(F)F)s2)c2cc(S(=O)(=O)NC3(C#N)CC3)cc(N3CCC(N=[N+]=[N-])CC3)c21 [Compound 60] | < 100
56 | CC(C)C(=O)N1CCN(c2cc(S(=O)(=O)NC3(C#N)CC3)cc3c(-c4cnn(C)c4)nn(C)c23)CC1 [Compound 61] | < 100
57 | CC(C)C(=O)N1CC2CCC(C1)N2c1cc(S(=O)(=O)NC2(C)CC2)cc2c(-c3nnc(C(F)F)s3)nn(C)c12 [Compound 62] | < 100
58 | CC(C)C(=O)N1CCN(c2cc(S(=O)(=O)NC3(C)CC3)cc3c(-c4nnc(C(F)F)s4)nn(C)c23)C2CC21 (stereo not shown) [Compound 63] | < 100
59 | CC(C)C(=O)N1CCN(c2cc(S(=O)(=O)NC3(C)CC3)cc3c(-c4nnc(C(F)F)s4)csc23)CC1 [Compound 64] | < 100
60 | CC(C)C(=O)N1C2CCC1CN(c1cc(S(=O)(=O)NC3(C)CC3)cc3c(-c4nnc(C(F)F)s4)nn(C)c13)C2 [Compound 65] | < 100

same assay, conditions: Table 2, value in brackets

Row | Compound | IC50 [nM]
61 | CC(C)C(=O)N1CCN(c2cc(S(=O)(=O)NC3(C#N)CC3)cc3c(-c4nnc(C(F)F)s4)n[nH]c23)CC1 [Compound 18] | 0.9
62 | Cn1nc(-c2nnc(C(F)F)s2)c2cc(S(=O)(=O)NC3(C#N)CC3)cc(N3CCC4(CC3)COC4)c21 [Compound 46] | 0.9

same assay, conditions: Table 3, class symbol

Row | Compound | IC50 [nM]
63 | CCn1nc(-c2nnc(C(F)F)s2)c2c(F)c(S(=O)(=O)NC3(C)CC3)cc(N3CCN(C(=O)C(C)C)CC3)c21 [Compound 66] | < 100
64 | CCn1nc(-c2nnc(C(F)F)s2)c2cc(S(=O)(=O)NC3(C)CC3)c(F)c(N3CCN(C(=O)C(C)C)CC3)c21 [Compound 67] | < 100
65 | CC(C)C(=O)N1CCN(c2cc(S(=O)(=O)NC3(C#N)CC3)cc3c(-c4nnc(C(F)F)s4)nn(C)c23)C[C@H]1C [Compound 69] | < 100
66 | C[C@@H]1CN(c2cc(S(=O)(=O)NC3(C#N)CC3)cc3c(-c4nnc(C(F)F)s4)nn(C)c23)CCN1C(=O)N(C)C [Compound 70] | < 100
67 | C[C@H]1CN(c2cc(S(=O)(=O)NC3(C#N)CC3)cc3c(-c4nnc(C(F)F)s4)nn(C)c23)CCN1C(=O)N(C)C [Compound 71] | < 100

Source: US20230278998A1, “Compound containing structure of a five-membered heteroaromatic ring, pharmaceutical compositions thereof and applications thereof” (280 Bio, Inc., priority 2022, published 2023)
